# Measurements published in PMC11702208 (RSC Advances, 2025).
# Several values for one entry are separate records, joined by “and”; a condition that tells them apart may be missing. Identical values can stand only once.
# Assays:
# CCRF-CEM = experiment: NCI cytotoxicity screen; assay type: cell-based, human; settings: for GI %: 10.0 μM one dose
# MOLT-4 = experiment: NCI cytotoxicity screen; assay type: cell-based, human; settings: for GI %: 10.0 μM one dose
# HOP-92 = experiment: NCI cytotoxicity screen; assay type: cell-based, human; settings: 10.0 μM one dose
# NCI-H226 = experiment: NCI cytotoxicity screen; assay type: cell-based, human; settings: for GI %: 10.0 μM one dose
# NCI-H522 = experiment: NCI cytotoxicity screen; assay type: cell-based, human; settings: for GI %: 10.0 μM one dose
# HCT-116 = experiment: NCI cytotoxicity screen; assay type: cell-based, human; settings: for GI %: 10.0 μM one dose
# KM12 = experiment: NCI cytotoxicity screen; assay type: cell-based, human; settings: for GI %: 10.0 μM one dose, KM-12
# SW-620 = experiment: NCI cytotoxicity screen; assay type: cell-based, human; settings: for GI %: 10.0 μM one dose
# SF-268 = experiment: NCI cytotoxicity screen; assay type: cell-based, human; settings: for GI %: 10.0 μM one dose
# SNB-19 = experiment: NCI cytotoxicity screen; assay type: cell-based, human; settings: for GI %: 10.0 μM one dose
# LOX IMVI = experiment: NCI cytotoxicity screen; assay type: cell-based, human; settings: for GI %: 10.0 μM one dose
# MALME-3M = experiment: NCI cytotoxicity screen; assay type: cell-based, human; settings: for GI %: 10.0 μM one dose, MALME-3M
# M14 = experiment: NCI cytotoxicity screen; assay type: cell-based, human; settings: for GI %: 10.0 μM one dose
# MDA-MB-435 = experiment: NCI cytotoxicity screen; assay type: cell-based, human; settings: for GI %: 10.0 μM one dose
# SK-MEL-2 = experiment: NCI cytotoxicity screen; assay type: cell-based, human; settings: for GI %: 10.0 μM one dose
# SK-MEL-28 = experiment: NCI cytotoxicity screen; assay type: cell-based, human; settings: for GI %: 10.0 μM one dose
# IGROV1 = experiment: NCI cytotoxicity screen; assay type: cell-based, human; settings: for GI %: 10.0 μM one dose, IGROV1
# SK-OV-3 = experiment: NCI cytotoxicity screen; assay type: cell-based, human; settings: for GI %: 10.0 μM one dose
# TK-10 = experiment: NCI cytotoxicity screen; assay type: cell-based, human; settings: for GI %: 10.0 μM one dose
# DU-145 = experiment: NCI cytotoxicity screen; assay type: cell-based, human; settings: for GI %: 10.0 μM one dose
# MCF7 = experiment: NCI cytotoxicity screen; assay type: cell-based, human; settings: for GI %: 10.0 μM one dose, MCF-7
# HS 578T = experiment: NCI cytotoxicity screen; assay type: cell-based, human; settings: for GI %: 10.0 μM one dose, HS-578T
# MDA-MB-468 = experiment: NCI cytotoxicity screen; assay type: cell-based, human; settings: for GI %: 10.0 μM one dose
# COX-2 = target: T1, COX-2 (Ovis aries, UniProt P79208); experiment: Colorimetric COX; assay type: biochemical, ovine
# T1 sequence (P79208 17-603): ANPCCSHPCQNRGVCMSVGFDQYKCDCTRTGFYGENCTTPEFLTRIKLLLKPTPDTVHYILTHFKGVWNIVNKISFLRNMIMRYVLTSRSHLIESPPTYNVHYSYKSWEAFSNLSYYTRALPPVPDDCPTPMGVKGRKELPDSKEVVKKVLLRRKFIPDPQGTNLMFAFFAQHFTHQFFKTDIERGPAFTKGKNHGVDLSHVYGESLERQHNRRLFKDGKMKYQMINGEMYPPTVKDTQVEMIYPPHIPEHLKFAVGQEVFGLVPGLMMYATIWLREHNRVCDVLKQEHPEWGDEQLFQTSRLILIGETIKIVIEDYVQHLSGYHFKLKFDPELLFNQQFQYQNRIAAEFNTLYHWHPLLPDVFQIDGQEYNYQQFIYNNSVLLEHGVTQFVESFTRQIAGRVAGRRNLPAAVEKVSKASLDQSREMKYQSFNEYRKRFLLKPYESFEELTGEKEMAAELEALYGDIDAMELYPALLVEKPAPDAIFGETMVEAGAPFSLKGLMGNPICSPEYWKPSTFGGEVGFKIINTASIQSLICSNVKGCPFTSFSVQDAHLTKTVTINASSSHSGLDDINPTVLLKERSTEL
# EGFR = EGFR (Homo sapiens, UniProt P00533); experiment: biochemical; settings: IC50 EGFR inhibition
# HER2 = HER2 (Homo sapiens, UniProt P04626); experiment: HER2 tyrosine kinase assay; assay type: biochemical; settings: IC50 HER2 inhibition
# CDK9 = CDK9 (Homo sapiens, UniProt P50750); experiment: biochemical; settings: IC50 CDK9 inhibition
# MOLT4 cells [1] = experiment: Cell cycle analysis; assay type: cell-based; settings: compound at IC50 concentration
# MOLT4 cells [2] = experiment: Annexin V-FITC/PI apoptosis assay; assay type: cell-based
# HL-60(TB) [3] = settings: 10.0 μM one dose
# K-562 = settings: 10.0 μM one dose
# [4] = tested on: Colon cancer subpanel tumor cell lines; experiment: NCI cytotoxicity screen, subpanel; assay type: cell-based, human
# [5] = tested on: Renal cancer subpanel tumor cell lines; experiment: NCI cytotoxicity screen, subpanel; assay type: cell-based, human
# T-47D cells = experiment: Annexin V-FITC/PI apoptosis assay; assay type: cell-based
# HL-60(TB) [6] = experiment: cells; settings: Homo sapiens
# Sequence of CDK9 (P50750 whole entry): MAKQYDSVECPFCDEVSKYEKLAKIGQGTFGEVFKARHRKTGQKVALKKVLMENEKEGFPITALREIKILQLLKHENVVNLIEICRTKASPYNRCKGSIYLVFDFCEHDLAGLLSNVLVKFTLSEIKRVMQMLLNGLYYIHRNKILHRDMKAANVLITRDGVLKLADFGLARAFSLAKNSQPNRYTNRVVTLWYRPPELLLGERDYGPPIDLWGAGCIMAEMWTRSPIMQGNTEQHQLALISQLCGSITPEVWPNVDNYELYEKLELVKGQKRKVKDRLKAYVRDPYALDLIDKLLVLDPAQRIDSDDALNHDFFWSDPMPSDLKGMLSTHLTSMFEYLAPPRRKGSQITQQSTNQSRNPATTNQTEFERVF
# Sequence of CDK9 (O60563 whole entry partner): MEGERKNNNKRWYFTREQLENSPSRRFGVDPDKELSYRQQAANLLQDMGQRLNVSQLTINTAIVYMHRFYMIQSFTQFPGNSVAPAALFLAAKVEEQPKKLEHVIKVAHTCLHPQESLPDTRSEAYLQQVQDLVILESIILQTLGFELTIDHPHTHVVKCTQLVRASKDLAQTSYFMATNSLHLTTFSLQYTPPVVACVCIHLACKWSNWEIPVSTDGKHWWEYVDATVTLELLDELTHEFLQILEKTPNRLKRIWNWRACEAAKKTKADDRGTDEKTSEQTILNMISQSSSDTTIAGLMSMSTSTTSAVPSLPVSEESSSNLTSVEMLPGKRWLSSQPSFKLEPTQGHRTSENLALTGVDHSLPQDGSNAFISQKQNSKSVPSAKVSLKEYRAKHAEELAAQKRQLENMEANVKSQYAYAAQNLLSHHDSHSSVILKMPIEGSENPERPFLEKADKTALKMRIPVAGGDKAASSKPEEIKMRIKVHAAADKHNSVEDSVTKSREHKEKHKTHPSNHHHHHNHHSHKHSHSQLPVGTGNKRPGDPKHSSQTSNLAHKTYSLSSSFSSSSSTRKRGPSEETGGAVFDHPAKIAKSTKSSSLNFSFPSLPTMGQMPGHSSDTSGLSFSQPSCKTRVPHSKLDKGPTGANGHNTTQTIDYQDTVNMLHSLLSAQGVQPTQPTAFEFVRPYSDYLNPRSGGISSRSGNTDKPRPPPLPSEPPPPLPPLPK
# Sequence of HER2 (P04626 23-1255): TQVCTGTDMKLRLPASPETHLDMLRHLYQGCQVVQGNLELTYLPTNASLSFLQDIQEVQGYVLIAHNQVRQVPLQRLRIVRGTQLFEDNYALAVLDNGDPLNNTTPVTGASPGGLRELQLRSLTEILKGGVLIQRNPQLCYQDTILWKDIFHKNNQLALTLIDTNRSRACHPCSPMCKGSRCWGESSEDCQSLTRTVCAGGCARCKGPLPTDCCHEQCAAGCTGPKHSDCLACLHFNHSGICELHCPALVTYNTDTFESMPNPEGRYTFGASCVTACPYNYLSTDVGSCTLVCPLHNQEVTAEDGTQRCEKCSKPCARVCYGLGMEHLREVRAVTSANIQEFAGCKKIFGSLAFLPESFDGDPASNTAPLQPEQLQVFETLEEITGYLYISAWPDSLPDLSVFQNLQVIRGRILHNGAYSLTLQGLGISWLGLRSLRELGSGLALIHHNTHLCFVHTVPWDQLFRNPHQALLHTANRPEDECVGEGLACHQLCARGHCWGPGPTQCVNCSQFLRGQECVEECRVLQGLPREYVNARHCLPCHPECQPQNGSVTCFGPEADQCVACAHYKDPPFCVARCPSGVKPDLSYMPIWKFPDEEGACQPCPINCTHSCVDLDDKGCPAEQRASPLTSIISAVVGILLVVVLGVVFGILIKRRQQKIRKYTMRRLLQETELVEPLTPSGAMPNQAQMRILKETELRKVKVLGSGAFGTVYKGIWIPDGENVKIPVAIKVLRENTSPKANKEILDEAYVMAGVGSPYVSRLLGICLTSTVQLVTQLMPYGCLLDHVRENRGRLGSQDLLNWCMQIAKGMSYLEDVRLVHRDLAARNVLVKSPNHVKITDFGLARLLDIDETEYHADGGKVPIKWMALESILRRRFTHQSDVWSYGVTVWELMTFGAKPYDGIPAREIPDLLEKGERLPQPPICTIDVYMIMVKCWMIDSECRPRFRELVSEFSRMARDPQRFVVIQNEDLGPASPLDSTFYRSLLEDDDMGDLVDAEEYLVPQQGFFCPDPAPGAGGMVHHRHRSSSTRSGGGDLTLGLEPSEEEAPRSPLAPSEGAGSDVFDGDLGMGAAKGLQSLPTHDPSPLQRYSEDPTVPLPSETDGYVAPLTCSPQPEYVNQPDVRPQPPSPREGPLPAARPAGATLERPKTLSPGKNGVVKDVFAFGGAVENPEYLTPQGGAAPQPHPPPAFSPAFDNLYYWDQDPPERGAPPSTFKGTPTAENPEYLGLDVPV
# Sequence of EGFR (P00533 25-1210): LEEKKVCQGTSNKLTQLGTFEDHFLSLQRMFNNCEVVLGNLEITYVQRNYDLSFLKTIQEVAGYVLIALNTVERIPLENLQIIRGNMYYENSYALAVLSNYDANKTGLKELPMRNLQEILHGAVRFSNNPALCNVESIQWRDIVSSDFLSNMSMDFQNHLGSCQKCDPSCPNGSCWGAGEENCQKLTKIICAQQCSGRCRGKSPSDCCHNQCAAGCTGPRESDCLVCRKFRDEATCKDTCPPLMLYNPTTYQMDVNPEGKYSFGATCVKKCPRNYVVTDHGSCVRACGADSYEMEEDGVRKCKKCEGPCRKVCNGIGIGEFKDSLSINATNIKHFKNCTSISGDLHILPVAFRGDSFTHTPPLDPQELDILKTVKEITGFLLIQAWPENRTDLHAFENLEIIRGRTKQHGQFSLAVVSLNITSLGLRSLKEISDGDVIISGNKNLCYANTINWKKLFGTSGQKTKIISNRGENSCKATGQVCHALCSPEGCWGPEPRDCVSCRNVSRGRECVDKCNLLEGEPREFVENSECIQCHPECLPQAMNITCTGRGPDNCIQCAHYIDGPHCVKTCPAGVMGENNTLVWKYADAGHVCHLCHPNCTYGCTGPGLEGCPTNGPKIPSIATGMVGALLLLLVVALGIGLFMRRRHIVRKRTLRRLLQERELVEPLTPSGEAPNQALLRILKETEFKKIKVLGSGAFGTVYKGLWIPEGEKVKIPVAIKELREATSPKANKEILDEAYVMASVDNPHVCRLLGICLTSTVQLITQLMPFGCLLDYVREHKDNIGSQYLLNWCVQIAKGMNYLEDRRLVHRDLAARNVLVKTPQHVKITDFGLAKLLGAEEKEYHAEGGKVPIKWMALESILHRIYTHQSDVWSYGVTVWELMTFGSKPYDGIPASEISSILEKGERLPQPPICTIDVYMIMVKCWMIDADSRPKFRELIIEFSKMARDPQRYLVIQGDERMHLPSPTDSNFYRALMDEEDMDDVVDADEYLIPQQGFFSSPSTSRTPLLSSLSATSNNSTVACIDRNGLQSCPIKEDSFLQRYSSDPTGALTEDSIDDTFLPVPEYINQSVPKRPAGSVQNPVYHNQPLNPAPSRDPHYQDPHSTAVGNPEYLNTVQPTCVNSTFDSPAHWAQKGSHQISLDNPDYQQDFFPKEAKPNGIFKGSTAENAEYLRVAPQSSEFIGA
compound,measurement,setting,value
"NS(=O)(=O)c1ccc(Cn2c(SCC(=O)NN=Cc3ccccc3O)nc3ccccc3c2=O)cc1 [Compound 6, 4-((2-((2-(2-(2-Hydroxybenzylidene)hydrazineyl)-2-oxoethyl)thio)-4-oxoquinazolin-3(4H)-yl)methyl)benzenesulfonamide]",GI %,CCRF-CEM,77%
same,GI %,MOLT-4,80%
same,GI %,HOP-92,46%
same,GI %,NCI-H226,43%
same,GI %,NCI-H522,101%
same,GI %,HCT-116,58%
same,GI %,KM12,61%
same,GI %,SW-620,40%
same,GI %,SF-268,62%
same,GI %,SNB-19,45%
same,GI %,LOX IMVI,84%
same,GI %,MALME-3M,41%
same,GI %,M14,58%
same,GI %,MDA-MB-435,29%
same,GI %,SK-MEL-2,64%
same,GI %,SK-MEL-28,43%
same,GI %,IGROV1,38%
same,GI %,SK-OV-3,37%
same,GI %,TK-10,47%
same,GI %,DU-145,28%
same,GI %,MCF7,50%
same,GI %,HS 578T,29%
same,GI %,MDA-MB-468,48%
same,IC50,COX-2,4.47 ± 0.09 µM
same,IC50,EGFR,51.5 nM
same,IC50,HER2,44.1 nM
same,IC50,CDK9,96.1 nM
same,%G0-G1,MOLT4 cells [1],89.04%
same,%G2-M,MOLT4 cells [1],1.40%
same,Apoptosis Early,MOLT4 cells [2],19.2% and 19.22%
same,Apoptosis Total,MOLT4 cells [2],35.06%
same,Necrosis,MOLT4 cells [2],3.23%
same,GI %,HL-60(TB) [3],60%
same,GI %,K-562,64%
"CCN(CC)c1ccc(C=NNC(=O)CSc2nc3ccccc3c(=O)n2Cc2ccc(S(N)(=O)=O)cc2)c(O)c1 [Compound 5, 4-((2-((2-(2-(4-(Diethylamino)-2-hydroxybenzylidene)hydrazineyl)-2-oxoethyl)thio)-4-oxoquinazolin-3(4H)-yl)methyl)benzenesulfonamide]",GI %,CCRF-CEM,90%
same,GI50,CCRF-CEM; Homo sapiens,196 nM
same,GI %,MOLT-4,89%
same,GI50,MOLT-4; Homo sapiens,372 nM
same,GI %,HOP-92,42%
same,GI %,NCI-H226,69%
same,GI50,NCI-H226; Homo sapiens,894 nM
same,GI %,NCI-H522,126%
same,GI50,NCI-H522; Homo sapiens,2400 nM
same,GI %,HCT-116,79%
same,GI50,HCT-116; Homo sapiens,363 nM
same,GI %,KM12,85%
same,GI50,"KM12; Homo sapiens, KM12",569 nM
same,GI %,SW-620,79%
same,GI50,SW-620; Homo sapiens,949 nM
same,GI %,SF-268,82%
same,GI50,SF-268; Homo sapiens,766 nM
same,GI %,SNB-19,59%
same,GI50,SNB-19; Homo sapiens,2100 nM
same,GI %,LOX IMVI,99%
same,GI50,LOX IMVI; Homo sapiens,387 nM
same,GI %,MALME-3M,69%
same,GI50,"MALME-3M; Homo sapiens, Malme-3M",1090 nM
same,GI %,M14,96%
same,GI50,M14; Homo sapiens,452 nM
same,GI %,MDA-MB-435,87%
same,GI50,MDA-MB-435; Homo sapiens,2070 nM
same,GI %,SK-MEL-2,90%
same,GI50,SK-MEL-2; Homo sapiens,2410 nM
same,GI %,SK-MEL-28,67%
same,GI50,SK-MEL-28; Homo sapiens,1620 nM
same,GI %,IGROV1,74%
same,GI50,"IGROV1; Homo sapiens, IGROV-1",785 nM
same,GI %,SK-OV-3,79%
same,GI50,SK-OV-3; Homo sapiens,1320 nM
same,GI %,TK-10,85%
same,GI50,TK-10; Homo sapiens,1660 nM
same,GI %,DU-145,62%
same,GI50,DU-145; Homo sapiens,944 nM
same,GI %,MCF7,87%
same,GI50,"MCF7; Homo sapiens, MCF7",457 nM
same,GI %,HS 578T,37%
same,GI50,"HS 578T; Homo sapiens, Hs-578T",2110 nM
same,GI %,MDA-MB-468,110%
same,GI50,MDA-MB-468; Homo sapiens,524 nM
same,CC50,"[4]; Homo sapiens, read-out: LC50",> 100 µM
same,GI50,"[4]; Homo sapiens, subpanel value, Colon cancer",1600 nM
same,GI50,"[4]; subpanel value, Colon cancer",1560 nM
same,TGI,"[4]; subpanel value, Colon cancer",c (Compounds showed values > 100 μM)
same,CC50,"[5]; Homo sapiens, read-out: LC50",> 100 µM
same,GI50,"[5]; Homo sapiens, subpanel value, Renal cancer",1900 nM
same,GI50,"[5]; subpanel value, Renal cancer",1920 nM
same,TGI,"[5]; subpanel value, Renal cancer",91.54 µM
same,IC50,COX-2,3.32 ± 0.06 µM
same,IC50,EGFR,84.4 nM
same,IC50,HER2,53.9 nM
same,IC50,CDK9,147 ± 3.6 nM
same,Apoptosis Early,T-47D cells,9.3% and 9.28%
same,Apoptosis Late,T-47D cells,14.8% and 14.75%
same,Apoptosis Total,T-47D cells,31.07%
same,Necrosis,T-47D cells,7.04%
same,GI %,HL-60(TB) [3],120%
same,GI %,K-562,94%
same,GI50,HL-60(TB) [6],412 nM
